Counter-ions that a name gives are not always drawn.
Assays:
human NTCP [1] = target: T1, human NTCP (Homo sapiens, UniProt Q14973); test: Screening taurocholate uptake assay (96-well, [14C]taurocholate, 10 µM drug); details: for B-score functional assay: 10 µM drug
T1 sequence (Q14973 1-349): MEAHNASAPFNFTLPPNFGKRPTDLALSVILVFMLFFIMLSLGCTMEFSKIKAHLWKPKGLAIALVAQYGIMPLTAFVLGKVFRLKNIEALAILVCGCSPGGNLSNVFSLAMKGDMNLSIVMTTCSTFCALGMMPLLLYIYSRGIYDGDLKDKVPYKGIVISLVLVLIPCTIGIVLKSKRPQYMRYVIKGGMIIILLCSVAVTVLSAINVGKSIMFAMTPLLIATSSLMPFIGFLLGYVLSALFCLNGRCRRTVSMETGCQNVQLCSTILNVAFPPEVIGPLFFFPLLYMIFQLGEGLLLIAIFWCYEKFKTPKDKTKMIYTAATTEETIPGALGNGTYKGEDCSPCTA

human NTCP [2] = target: T1, human NTCP; test: Screening fluorescent competitive Myrcludex B-FITC binding assay (96-well, 10 µM drug); details: 10 µM drug
[3] = Prestwick library screen, B-score of taurocholate uptake
[4] = combined ranking from functional and binding assay B-scores
[5] = Prestwick library screen, B-score of Myrcludex B-FITC binding
[6] = Prestwick library screen, taurocholate uptake
[7] = ranking score beside the functional and binding assay B-scores of the screen
[8] = Prestwick library screen, Myrcludex B-FITC binding
[9] = combined ranking from functional and binding screening assays
[10] = screen, Myrcludex B-FITC binding

Structure (SMILES): CC(C)NCC(O)c1ccc(O)c(O)c1.Cl (single isomer, unassigned; (-)) [(-)-Isoproterenol hydrochloride]
- B-score functional assay (human NTCP [1]; [3]): 0.061
- Ranking score (human NTCP [1]; [4]): 845.999
- B-score binding assay (human NTCP [2]; [5]): 0.852

Structure (SMILES): CN1C(=O)OC(C)(C)C1=O [Trimethadione]
- B-score functional assay (human NTCP [1]; [3]): 1.466
- Ranking score (human NTCP [1]; [4]): 860.791
- B-score binding assay (human NTCP [2]; [5]): 0.001

Structure (SMILES): [H]/N=C(/NCCCCC)N/N=C/c1c[nH]c2ccc(OC)cc12 [Tegaserod maleate]
- B-score functional assay (human NTCP [1]; [3]): 1.009
- Ranking score (human NTCP [1]; [4]): 947.847
- B-score binding assay (human NTCP [2]; [5]): 0.318

Structure (SMILES): CN(C)CC/C=C1/c2ccccc2Sc2ccc(Cl)cc21 [Chlorprothixene hydrochloride]
- B-score functional assay (human NTCP [1]; [6]): 0.429
- Ranking score (human NTCP [1]; [7]): 661.498
- B-score binding assay (human NTCP [2]; [8]): -0.184

Structure (SMILES): Cc1cn([C@H]2C[C@H](N=[N+]=[N-])[C@@H](CO)O2)c(=O)[nH]c1=O [Zidovudine, AZT]
- B-score functional assay (human NTCP [1]; [3]): 1.119
- Ranking score (human NTCP [1]; [4]): 985.737
- B-score binding assay (human NTCP [2]; [5]): 0.429

Structure (SMILES): CO[C@@H]1[C@@H](OC(N)=O)[C@@H](O)[C@H](Oc2ccc3c([O-])c(NC(=O)c4ccc(O)c(CC=C(C)C)c4)c(=O)oc3c2C)OC1(C)C.[Na+] [Novobiocin sodium salt]
- B-score functional assay (human NTCP [1]; [3]): 1.027
- Ranking score (human NTCP [1]; [4]): 942.881
- B-score binding assay (human NTCP [2]; [5]): 0.269

Structure (SMILES): OC[C@H]1O[C@@H](Oc2ccc(O)cc2)[C@H](O)[C@@H](O)[C@@H]1O [Arbutin]
- B-score functional assay (human NTCP [1]; [3]): 0.864
- Ranking score (human NTCP [1]; [4]): 944.447
- B-score binding assay (human NTCP [2]; [5]): 0.372

Structure (SMILES): CN1[C@@H]2CC[C@H]1C[C@@H](OC1c3ccccc3CCc3ccccc31)C2.O=C(O)CC(O)(CC(=O)O)C(=O)O [Deptropine citrate]
- B-score functional assay (human NTCP [1]; [3]): 0.947
- Ranking score (human NTCP [1]; [4]): 1000.12
- B-score binding assay (human NTCP [2]; [5]): 0.633

Structure (SMILES): CCOC(=O)[C@H](CCc1ccccc1)N[C@@H](C)C(=O)N1CCC[C@H]1C(=O)O [Enalapril maleate]
- B-score functional assay (human NTCP [1]; [6]): 0.08
- Ranking score (human NTCP [1]; [7]): 705.002
- B-score binding assay (human NTCP [2]; [8]): 0.03

Structure (SMILES): CC(=O)OC[C@H]1O[C@@H]([S-])[C@H](OC(C)=O)[C@@H](OC(C)=O)[C@@H]1OC(C)=O.CCP(CC)CC.[Au+] [Auranofin]
- B-score functional assay (human NTCP [1]; [6]): 0.729
- Ranking score (human NTCP [1]; [7]): 748.559
- B-score binding assay (human NTCP [2]; [8]): -0.068

Structure (SMILES): Cc1cc(=O)oc2cc(O)ccc12 [Hymecromone]
- Ranking score (human NTCP [1]; [9]): 448.437
- B-score functional assay (human NTCP [1]; screen, taurocholate uptake): -0.811
- B-score binding assay (human NTCP [2]; [10]): 0.036

Structure (SMILES): COc1ccccc1N1CCN(CC(O)COc2cccc3ccccc23)CC1.Cl.Cl (stereo not drawn) [Naftopidil dihydrochloride]
- Ranking score (human NTCP [1]; [9]): 412.912
- B-score functional assay (human NTCP [1]; screen, taurocholate uptake): -1.853
- B-score binding assay (human NTCP [2]; [10]): 1.879

Structure (SMILES): COCCCOc1ccnc(C[S+]([O-])c2nc3ccccc3[nH]2)c1C (stereo not drawn) [Rabeprazole Sodium salt]
- B-score functional assay (human NTCP [1]; [6]): 1.371
- Ranking score (human NTCP [1]; [7]): 764.457
- B-score binding assay (human NTCP [2]; [8]): -0.144

Structure (SMILES): Cl.Cl.Fc1ccc(C(OCCN2CCN(CCCc3ccccc3)CC2)c2ccc(F)cc2)cc1 [GBR 12909 dihydrochloride]
- Ranking score (human NTCP [1]; [9]): 416.575
- B-score functional assay (human NTCP [1]; screen, taurocholate uptake): -0.602
- B-score binding assay (human NTCP [2]; [10]): -0.172

Structure (SMILES): COc1cc(C(=O)N2CCOCC2)cc(OC)c1OC [Trimetozine]
- B-score functional assay (human NTCP [1]; [3]): 0.651
- Ranking score (human NTCP [1]; [4]): 925.93
- B-score binding assay (human NTCP [2]; [5]): 0.441

Structure (SMILES): CC(NCCc1ccc(O)cc1)C(O)c1ccc(O)cc1 (stereo not drawn) [Ritodrine hydrochloride]
- B-score functional assay (human NTCP [1]; [3]): 1
- Ranking score (human NTCP [1]; [4]): 1111.92
- B-score binding assay (human NTCP [2]; [5]): 1.66

Structure (SMILES): COc1c2occc2c(OC)c2c(=O)cc(C)oc12 [Khellin]
- Ranking score (human NTCP [1]; [9]): 450.763
- B-score functional assay (human NTCP [1]; screen, taurocholate uptake): 0.111
- B-score binding assay (human NTCP [2]; [10]): -0.883

Structure (SMILES): CCN(CC)CCOCCOC(=O)C1(c2ccccc2)CCCC1 [Carbetapentane citrate]
- B-score functional assay (human NTCP [1]; [3]): 0.114
- Ranking score (human NTCP [1]; [4]): 943.43
- B-score binding assay (human NTCP [2]; [5]): 1.7

Structure (SMILES): CS(=O)(=O)O.OC(CCN1CCCCC1)(c1ccccc1)c1ccccc1 [Pridinol methanesulfonate salt]
- B-score functional assay (human NTCP [1]; [3]): 1.063
- Ranking score (human NTCP [1]; [4]): 875.882
- B-score binding assay (human NTCP [2]; [5]): 0.059

Structure (SMILES): O=C(O)c1ccccc1OP(=O)(O)O [Fosfosal]
- Ranking score (human NTCP [1]; [9]): 393.853
- B-score functional assay (human NTCP [1]; screen, taurocholate uptake): -0.869
- B-score binding assay (human NTCP [2]; [10]): -0.072

Structure (SMILES): Cc1ccc(C(=O)c2cc(O)c(O)c([N+](=O)[O-])c2)cc1 [Tolcapone]
- Ranking score (human NTCP [1]; [9]): 424.338
- B-score functional assay (human NTCP [1]; screen, taurocholate uptake): -1.594
- B-score binding assay (human NTCP [2]; [10]): 1.049
